Here are results for seven compounds from PubChem BioAssay (NCI).

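In this assay, cells in 96-well plates receive the compound at five concentrations for 48 hours. Endpoints are linearly interpolated between the surrounding concentrations. GI50: concentration for 50% inhibition of growth. TGI is the concentration that stops growth completely.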

Some test systems named below: CCRF-CEM leukemia; CAKI-1 renal; MDA-MB-435; T-47D breast; NCI/ADR-RES ovarian; TK-10 renal; ACHN renal; 786-0 renal; SR leukemia; OVCAR-3 ovarian.
Common to all, as to assay: growth of human tumour cells (NCI), 48 h

On to `N#C[Se]CCN1C(=O)c2ccccc2C1=O`, for which the GI50 is 0.934 µM with CCRF-CEM leukemia; 2.94 µM in the assay with CAKI-1 renal; 1.73 µM with MDA-MB-435; 3.45 µM in the assay with T-47D breast; 1.87 µM in the assay on NCI/ADR-RES ovarian; 2.13 µM with TK-10 renal. Also, the GI50 was 3.33 µM in the assay with ACHN renal, 2.1 µM with 786-0 renal, 3.21 µM in the assay with SR leukemia and 2.73 µM in the assay with OVCAR-3 ovarian. Also, the TGI in the assay with CCRF-CEM leukemia came to 30.3 µM; in the assay with CAKI-1 renal, 8.62 µM; with MDA-MB-435, 3.83 µM; in the assay with T-47D breast it was 20.2 µM; in the assay on NCI/ADR-RES ovarian, 7.42 µM; in the assay with TK-10 renal, 6.3 µM. Also, the TGI came out at 11.9 µM in the assay with ACHN renal, 5.09 µM in the assay with 786-0 renal, 23.9 µM with SR leukemia and 9.39 µM in the assay with OVCAR-3 ovarian.
Take `O=C(CC1(O)C(=O)Nc2c(Cl)cc(Cl)cc21)c1cccc([N+](=O)[O-])c1` (centres undefined): the TGI with CCRF-CEM leukemia is 48.2 µM; with CAKI-1 renal, greater than 93.2 µM; in the assay with MDA-MB-435, 16.3 µM; with T-47D breast, greater than 100 µM; with NCI/ADR-RES ovarian it was greater than 100 µM; in the assay on TK-10 renal it was greater than 100 µM. In addition, the TGI in the assay with ACHN renal was greater than 54.6 µM; in the assay with 786-0 renal, greater than 59.9 µM; in the assay with SR leukemia it was greater than 100 µM; in the assay with OVCAR-3 ovarian, 58.5 µM.
In the case of `O=C1NC(=NCc2cccs2)O/C1=C\c1ccc2ncccc2c1`, the GI50 in the assay on CCRF-CEM leukemia is 4.8 µM; with CAKI-1 renal, 3.86 µM; with MDA-MB-435 it was 4.51 µM; in the assay with T-47D breast, 2.98 µM; with NCI/ADR-RES ovarian it was 7.8 µM; with TK-10 renal it was 2.89 µM. Also, the GI50 in the assay with ACHN renal was 4.07 µM; in the assay on 786-0 renal, 6.21 µM; in the assay on SR leukemia, 2.58 µM; in the assay with OVCAR-3 ovarian, 4.46 µM. Further, the TGI is 16.7 µM in the assay with CCRF-CEM leukemia; 12.3 µM in the assay on CAKI-1 renal; 14.4 µM with MDA-MB-435; 12.6 µM in the assay with T-47D breast; greater than 25 µM in the assay on NCI/ADR-RES ovarian; 9.61 µM in the assay with TK-10 renal. The TGI in the assay with ACHN renal is 21.5 µM; in the assay with 786-0 renal, greater than 20.3 µM; in the assay with SR leukemia it was 10.7 µM; in the assay on OVCAR-3 ovarian, 12.6 µM.
With `Nc1cc(C(F)(F)F)c(-c2nc(N3CCOCC3)nc(N3CCOCC3)n2)cn1`, the GI50 in the assay with CCRF-CEM leukemia is 2.97 µM; in the assay with CAKI-1 renal, 0.502 µM; in the assay on MDA-MB-435, 0.398 µM; with T-47D breast, 0.0328 µM; with TK-10 renal it was 0.11 µM; with ACHN renal it was 0.403 µM. The GI50 in the assay with 786-0 renal is 0.482 µM; in the assay with SR leukemia, 1.04 µM; in the assay with OVCAR-3 ovarian it was 0.313 µM. Moreover, the TGI with CCRF-CEM leukemia was greater than 100 µM; in the assay on CAKI-1 renal, greater than 71.7 µM; in the assay with MDA-MB-435, 5.15 µM; in the assay with T-47D breast, 0.347 µM; with NCI/ADR-RES ovarian it was greater than 23.2 µM; with TK-10 renal it was 1.17 µM. Besides, the TGI with ACHN renal was greater than 100 µM; in the assay with 786-0 renal it was 6.33 µM; in the assay on SR leukemia, 28.4 µM; in the assay on OVCAR-3 ovarian it was 11.2 µM.
As for `COc1cc2c(cc1C)NC(=O)/C2=C\c1ccc(Oc2ccccc2)cc1`, the GI50 in the assay on CCRF-CEM leukemia is 8.36 µM; in the assay with CAKI-1 renal it was 17 µM; in the assay on MDA-MB-435 it was 17.8 µM; with T-47D breast, 15.1 µM; with NCI/ADR-RES ovarian, 17.4 µM; in the assay on TK-10 renal, 16.8 µM. The GI50 in the assay on ACHN renal was 15.6 µM; in the assay on 786-0 renal, 12 µM; in the assay with SR leukemia, 0.0697 µM; in the assay on OVCAR-3 ovarian it was 17.2 µM. Also, the TGI with CCRF-CEM leukemia was 27.5 µM; in the assay with CAKI-1 renal it was 33 µM; in the assay with MDA-MB-435 it was 38.1 µM; with T-47D breast, 48.4 µM; with NCI/ADR-RES ovarian, 36.5 µM; with TK-10 renal it was 32.9 µM. The TGI came to 29 µM in the assay on ACHN renal, 24.8 µM with 786-0 renal, 2.1 µM in the assay on SR leukemia and 34.3 µM with OVCAR-3 ovarian.
Turning to `CCOC(=O)C#Cc1c(C(=O)OCC)nnn1[C@@H]1O[C@H](COC)[C@@H](OC)[C@H]1OC`, the GI50 in the assay with CCRF-CEM leukemia is 1.87 µM; in the assay on CAKI-1 renal, 1.74 µM; with MDA-MB-435 it was 12.1 µM; in the assay on T-47D breast it was 2.47 µM; in the assay with NCI/ADR-RES ovarian it was 15.9 µM; with TK-10 renal, 1.86 µM. The GI50 with ACHN renal was 1.95 µM; in the assay with 786-0 renal it was 13.3 µM; with SR leukemia, 1.64 µM; in the assay on OVCAR-3 ovarian, 1.72 µM. Moreover, the TGI in the assay on CCRF-CEM leukemia is 4.93 µM; in the assay on CAKI-1 renal it was 3.14 µM; with MDA-MB-435, 24.5 µM; with T-47D breast, 7.39 µM; in the assay on NCI/ADR-RES ovarian, 37.3 µM; in the assay with TK-10 renal it was 3.45 µM. The TGI with ACHN renal is 3.9 µM; with 786-0 renal, 26.7 µM; in the assay on SR leukemia, 4.66 µM; in the assay with OVCAR-3 ovarian, 3.25 µM.
In the case of `O=S(=O)(O)C(c1ccccc1)C(O)c1ccccc1` (centres undefined), the TGI in the assay with CCRF-CEM leukemia, in the assay on CAKI-1 renal, with MDA-MB-435, in the assay with T-47D breast, with NCI/ADR-RES ovarian and in the assay on TK-10 renal was greater than 100 µM throughout. Also, the TGI in the assay on ACHN renal, with 786-0 renal, with SR leukemia and in the assay on OVCAR-3 ovarian was greater than 100 µM in each case.
